Data on 16 compounds can be found in PubChem BioAssay (NCI).

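Interpolation was linear, between the two tested concentrations surrounding the appropriate level; five concentrations were tested over 48 hours in 96-well plates. GI50 = concentration required for 50% inhibition of growth. TGI: concentration producing complete growth inhibition.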

Among the test systems are A498 renal; MDA-N; SK-MEL-5 melanoma; HCT-116 colon; T-47D breast; SF-268 CNS; K-562 leukemia; BT-549 breast; HL-60(TB) leukemia; SR leukemia; MOLT-4 leukemia; SK-MEL-2 melanoma; NCI-H226 lung; COLO 205 colon; 786-0 renal.
Holding throughout (assay): growth of human tumour cells (NCI), 48 h

For `OC(CC(CC(O)(C(F)(F)Cl)C(F)(F)Cl)=NNc1ccccc1)(C(F)(F)Cl)C(F)(F)Cl`, the TGI in the assay with A498 renal is 6.72 µM; in the assay on MDA-N it was 7.81 µM; in the assay on SK-MEL-5 melanoma, 3.45 µM; in the assay on HCT-116 colon, 3.89 µM; in the assay on T-47D breast, 9.42 µM; in the assay on SF-268 CNS it was 7.44 µM. In addition, the TGI in the assay with K-562 leukemia was over 10 µM; with BT-549 breast, 5.69 µM; in the assay with HL-60(TB) leukemia it was over 10 µM; in the assay on SR leukemia it was over 10 µM; with MOLT-4 leukemia, over 10 µM; in the assay on SK-MEL-2 melanoma it was 3.56 µM. The TGI in the assay with NCI-H226 lung was 7.89 µM; in the assay with COLO 205 colon, 3.51 µM; in the assay with 786-0 renal, over 10 µM.
In the case of `COC(=O)/C=C/c1cnc2c(c1)oc(=O)n2CCc1ccccn1`, the TGI with A498 renal, with MDA-N, with SK-MEL-5 melanoma, in the assay on HCT-116 colon, in the assay on T-47D breast and in the assay on SF-268 CNS was over 100 µM in each case. Further, the TGI was over 100 µM in the assay on K-562 leukemia; over 100 µM in the assay on BT-549 breast; 9.78 µM with HL-60(TB) leukemia; over 100 µM with SR leukemia; over 100 µM in the assay with MOLT-4 leukemia; over 100 µM in the assay with SK-MEL-2 melanoma. In addition, the TGI in the assay with NCI-H226 lung, with COLO 205 colon and in the assay with 786-0 renal was over 100 µM each time.
Take `CCCCCCCC(=O)OC[n+]1ccc(-c2c(COC(=O)NC(C)C)c(COC(=O)NC(C)C)c3n2CCC3)cc1`: the TGI in the assay with A498 renal is 85.1 µM; in the assay on MDA-N, over 100 µM; in the assay with SK-MEL-5 melanoma, over 100 µM; in the assay with HCT-116 colon, over 71.4 µM; in the assay on T-47D breast it was over 100 µM; in the assay on SF-268 CNS, over 73.8 µM. Moreover, the TGI with K-562 leukemia was over 100 µM; in the assay with BT-549 breast, over 94.1 µM; with HL-60(TB) leukemia it was 52.4 µM; in the assay with SR leukemia it was over 56 µM; in the assay with MOLT-4 leukemia, over 59 µM; in the assay with SK-MEL-2 melanoma it was 47.1 µM. In addition, the TGI in the assay on NCI-H226 lung was over 100 µM; in the assay with COLO 205 colon it was over 100 µM; in the assay with 786-0 renal it was over 79.8 µM.
In the case of `COC(=O)C1=C(OC(=O)/C(=C/c2ccc(Cl)cc2Cl)c2ccc(Cl)cc2Cl)C(C(=O)OC)[C@@]2(O)[C@@H](C(=O)OC)[C@H](C)C[C@@H]1[C@@H]2C(=O)OC` (some centres not stated), the TGI in the assay with A498 renal, with MDA-N, in the assay with SK-MEL-5 melanoma, in the assay on HCT-116 colon, with T-47D breast and in the assay on SF-268 CNS was over 100 µM throughout. Besides, the TGI with K-562 leukemia, in the assay with BT-549 breast, with HL-60(TB) leukemia, in the assay on SR leukemia, with MOLT-4 leukemia and in the assay on SK-MEL-2 melanoma was over 100 µM throughout. The TGI with NCI-H226 lung, in the assay with COLO 205 colon and in the assay with 786-0 renal was over 100 µM each time.
Turning to `CC(=O)NC1=C(C)C(=O)c2c(nc3n2CCC3OC(=O)c2ccccc2)C1=N` (configuration not stated), the TGI with A498 renal turned out to be 3.66 µM; in the assay on MDA-N, 0.347 µM; in the assay on SK-MEL-5 melanoma it was 2.83 µM; with HCT-116 colon it was 21.2 µM; in the assay on T-47D breast, 10.9 µM; in the assay on SF-268 CNS it was 6.28 µM. Further, the TGI with K-562 leukemia was found to be 5.65 µM; with BT-549 breast it was 1.65 µM; in the assay with HL-60(TB) leukemia, 3.74 µM; in the assay with SR leukemia it was 7.73 µM; in the assay with MOLT-4 leukemia it was 5.24 µM; in the assay on SK-MEL-2 melanoma, 4.18 µM. Moreover, the TGI in the assay on NCI-H226 lung amounted to 13.9 µM; with COLO 205 colon, 3.27 µM; with 786-0 renal, 3.65 µM.
For `COC(=O)Nc1nc2ccc(Oc3ccc4nc(NC(=O)OC)[nH]c4c3)cc2[nH]1`, the TGI was over 51.4 µM in the assay with A498 renal; over 100 µM in the assay with MDA-N; 4.19 µM with SK-MEL-5 melanoma; over 100 µM in the assay on HCT-116 colon; over 100 µM with T-47D breast; over 45.2 µM in the assay with K-562 leukemia. Moreover, the TGI in the assay on BT-549 breast is over 100 µM; in the assay with HL-60(TB) leukemia it was 1.96 µM; with SR leukemia, over 21.9 µM; in the assay with MOLT-4 leukemia it was over 32.8 µM; in the assay with SK-MEL-2 melanoma, over 100 µM; with NCI-H226 lung it was 2.72 µM. The TGI was 7.59 µM in the assay on COLO 205 colon and over 49.6 µM in the assay with 786-0 renal.
Turning to `CO[C@H]1O[C@@H]2CO[C@@H](c3ccccc3)O[C@H]2[C@@H]2CC=CCC[C@]12O`, the TGI in the assay with A498 renal was 92.7 µM; with MDA-N, over 100 µM; with SK-MEL-5 melanoma it was over 100 µM; with HCT-116 colon, over 100 µM; in the assay on T-47D breast, over 100 µM; in the assay with SF-268 CNS, 51 µM. For the same compound, the TGI with K-562 leukemia was over 100 µM; with BT-549 breast, 69 µM; with HL-60(TB) leukemia it was 67 µM; with SR leukemia, over 100 µM; with MOLT-4 leukemia, 73.3 µM; in the assay with SK-MEL-2 melanoma, over 100 µM. The TGI in the assay with NCI-H226 lung, in the assay with COLO 205 colon and with 786-0 renal was over 100 µM each time.
Turning to `FC(F)(F)c1nc2ccc(SSc3ccc4nc(C(F)(F)F)[nH]c4c3)cc2[nH]1`, the GI50 in the assay with A498 renal, with HCT-116 colon, with SF-268 CNS, with SK-MEL-2 melanoma and in the assay with NCI-H226 lung was over 100 µM each time. In addition, the TGI in the assay on A498 renal, in the assay with MDA-N, in the assay on SK-MEL-5 melanoma, in the assay with HCT-116 colon, in the assay on T-47D breast and in the assay with SF-268 CNS was over 100 µM throughout. The TGI in the assay on K-562 leukemia, in the assay with BT-549 breast, in the assay with HL-60(TB) leukemia, in the assay with SR leukemia, with MOLT-4 leukemia and in the assay on SK-MEL-2 melanoma was over 100 µM throughout. Moreover, the TGI in the assay on NCI-H226 lung, in the assay with COLO 205 colon and with 786-0 renal was over 100 µM each time.
`CC1=C(C(=O)N[C@@H](Cc2ccccc2)C(=O)O)N2C(=O)[C@@H](NC(=O)[C@@H](N)CC(C)C)[C@H]2SC1`: the TGI with A498 renal, in the assay with MDA-N, in the assay on SK-MEL-5 melanoma, in the assay on T-47D breast, in the assay with SF-268 CNS and with K-562 leukemia was over 100 µM each time. Besides, the TGI in the assay on BT-549 breast, with HL-60(TB) leukemia, with SR leukemia, with MOLT-4 leukemia, in the assay with SK-MEL-2 melanoma and with NCI-H226 lung was over 100 µM throughout. Further, the TGI in the assay on COLO 205 colon and in the assay on 786-0 renal was over 100 µM in each case.
As to `Oc1ccc(Cl)cc1-c1[nH]c(=S)nc(-c2ccccc2)c1Cl`, the TGI in the assay with A498 renal, in the assay on MDA-N, in the assay with SK-MEL-5 melanoma, in the assay with HCT-116 colon, in the assay on T-47D breast and in the assay on SF-268 CNS was over 100 µM throughout. Moreover, the TGI in the assay on K-562 leukemia, with BT-549 breast, in the assay with HL-60(TB) leukemia, in the assay on SR leukemia, in the assay with MOLT-4 leukemia and with SK-MEL-2 melanoma was over 100 µM each time. The TGI in the assay on NCI-H226 lung, in the assay on COLO 205 colon and in the assay with 786-0 renal was over 100 µM each time.
For `CN1CCC(CNC(=O)CCCCCCCCC(=O)NCC2(c3ccccc3)CCN(C)CC2)(c2ccccc2)CC1`, the TGI is over 100 µM in the assay with A498 renal; over 100 µM in the assay on MDA-N; over 100 µM in the assay with SK-MEL-5 melanoma; over 100 µM with HCT-116 colon; over 100 µM in the assay on T-47D breast; 57.6 µM in the assay with SF-268 CNS. In addition, the TGI with K-562 leukemia, in the assay with BT-549 breast, with HL-60(TB) leukemia, in the assay with SR leukemia, in the assay on MOLT-4 leukemia and in the assay on SK-MEL-2 melanoma was over 100 µM throughout. The TGI with NCI-H226 lung, in the assay on COLO 205 colon and with 786-0 renal was over 100 µM in each case.
In the case of `C[n+]1noc(/N=N\[O-])c1-c1cc(-c2c(/N=N\[O-])on[n+]2C)cc(-c2c(/N=N/[O-])on[n+]2C)c1`, the TGI in the assay on A498 renal, in the assay on MDA-N, in the assay on SK-MEL-5 melanoma, in the assay with HCT-116 colon, in the assay with T-47D breast and in the assay with SF-268 CNS was over 100 µM throughout. The TGI with K-562 leukemia, in the assay with BT-549 breast, in the assay with HL-60(TB) leukemia, in the assay on SR leukemia, with MOLT-4 leukemia and with SK-MEL-2 melanoma was over 100 µM each time. Moreover, the TGI with NCI-H226 lung, in the assay with COLO 205 colon and with 786-0 renal was over 100 µM each time.
For the compound `COc1cc(O)c2c(=O)c(OC)c(-c3ccc4c(c3)OCO4)oc2c1`, the TGI is over 89.3 µM in the assay on A498 renal; over 100 µM with MDA-N; 98.1 µM in the assay on SK-MEL-5 melanoma; over 100 µM in the assay with HCT-116 colon; over 100 µM with T-47D breast; 40 µM in the assay on SF-268 CNS. In addition, the TGI was over 100 µM in the assay on K-562 leukemia; over 30 µM in the assay on BT-549 breast; over 100 µM in the assay with HL-60(TB) leukemia; over 100 µM in the assay with SR leukemia; over 100 µM with MOLT-4 leukemia; over 100 µM in the assay with SK-MEL-2 melanoma. In addition, the TGI in the assay on NCI-H226 lung, in the assay on COLO 205 colon and with 786-0 renal was over 100 µM in each case.
`CC(C)(C)OC(=O)NC1CC=CCC1NC(=O)OC(C)(C)C` (configuration not stated): the TGI in the assay with A498 renal, in the assay with MDA-N, in the assay with SK-MEL-5 melanoma, in the assay on HCT-116 colon, in the assay with T-47D breast and in the assay on SF-268 CNS was over 100 µM in each case. Further, the TGI with K-562 leukemia, in the assay with BT-549 breast, in the assay on HL-60(TB) leukemia, with SR leukemia, in the assay with MOLT-4 leukemia and with SK-MEL-2 melanoma was over 100 µM in each case. The TGI in the assay on NCI-H226 lung, with COLO 205 colon and in the assay with 786-0 renal was over 100 µM throughout.
`Cc1cccc(-n2c(C)nc3ccc(NC4OC(CO)C(O)C(O)C4O)cc3c2=O)c1` (configuration not stated): the TGI with A498 renal, in the assay on MDA-N, with SK-MEL-5 melanoma, in the assay on HCT-116 colon, with T-47D breast and with SF-268 CNS was over 100 µM throughout. For the same compound, the TGI with K-562 leukemia, in the assay on BT-549 breast, in the assay on HL-60(TB) leukemia, with SR leukemia, in the assay with MOLT-4 leukemia and in the assay with SK-MEL-2 melanoma was over 100 µM throughout. The TGI in the assay on NCI-H226 lung, in the assay with COLO 205 colon and with 786-0 renal was over 100 µM each time.
On to `O=C1c2cccc3cccc(c23)C(=O)N1CCCNCCCCNCCCN1C(=O)c2cccc3cccc(c23)C1=O`, for which the TGI in the assay with A498 renal was found to be 2.45 µM; in the assay with MDA-N, 1.47 µM; in the assay with SK-MEL-5 melanoma, 1.93 µM; with HCT-116 colon it was 0.668 µM; with T-47D breast, 4.32 µM; with SF-268 CNS, 0.605 µM. Besides, the TGI in the assay on K-562 leukemia was determined as 0.337 µM; in the assay on BT-549 breast it was 3.02 µM; with HL-60(TB) leukemia, 1.93 µM; with SR leukemia it was 0.219 µM; with SK-MEL-2 melanoma, 1.89 µM; with NCI-H226 lung, 2.5 µM. Also, the values for the TGI in the assay on COLO 205 colon and in the assay with 786-0 renal were 1.25 µM and 0.734 µM, respectively.
